Each structure is given as a SMILES string.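 Step 1: Grow cells in 96-well plates. Step 2: Expose to compound for 48 hours at 5 concentrations. Step 3: Interpolate endpoints linearly; if unreached, use highest concentration. Abbreviation: GI50, concentration required for 50% inhibition of growth.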 Activity calls are given as the source filed them. Cut-off read from the data, not from the text of the source: active = GI50 up to about 1.1 µM and inactive = higher.

Holding throughout (assay): NCI-60 cell line screen, 48 h
In assay [1] the test system is HOP-92.
Assay [2] deals with COLO 205.
Assay [3] deals with A549.
For assay [4], the system named is SK-MEL-28.
Assay [5] relates to SK-MEL-2.
Assay [6] concerns OVCAR-8.
Assay [7] relates to MOLT-4.
In assay [8] the test system is MCF7.
Assay [9] concerns OVCAR-5.
For assay [10], the system named is OVCAR-3.
For assay [11], the system named is CAKI-1.
For assay [12], the system named is PC-3.
The test system of assay [13] is SF-539.
Assay [14] deals with SNB-19.
Assay [15] concerns UACC-62.
The subject of assay [16] is NCI-H522.
The subject of assay [17] is CCRF-CEM.
Assay [18] deals with MDA-N.
The subject of assay [19] is ACHN.
Assay [20] relates to IGROV-1.

For the molecule `Cc1cnc2nc(-c3ccc(F)cc3)cc(O)c2c1`, the GI50 in [1] was 33.2 µM (inactive); in assay [2], 7.64 µM (inactive); in assay [3], 42.4 µM (inactive); in [4], > 87.1 µM (inactive); in assay [5], 25.4 µM (inactive); in assay [6], 66.4 µM (inactive). Further, the GI50 in assay [7] is 34.1 µM (inactive); in [8] it was 47.5 µM (inactive); in assay [9], 51.4 µM (inactive); in assay [10], 27.5 µM (inactive); in assay [11], 50.9 µM (inactive); in assay [12] it was 28.6 µM (inactive). For the same molecule, the GI50 is 26.6 µM (inactive) in assay [13]; 35.4 µM (inactive) in assay [14]; 21.4 µM (inactive) in [15]; 13 µM (inactive) in assay [16]; 25.6 µM (inactive) in assay [17]; 2.72 µM (inactive) in assay [18]. The GI50 was 57.5 µM (inactive) in [19] and 29.2 µM (inactive) in assay [20].
Regarding `CCCCCCCCCCCCCCCCNc1ccc2c(c1)OCCOCCOCCOCCO2`, the GI50 in [1] was 2.37 µM (inactive); in assay [2] it was 1.75 µM (inactive); in [3] it was 3.78 µM (inactive); in assay [4], 6.28 µM (inactive); in assay [5], 2.25 µM (inactive); in assay [6], 2.68 µM (inactive). The GI50 in assay [7] is 2.5 µM (inactive); in [8] it was 3.61 µM (inactive); in assay [9], 3.61 µM (inactive); in assay [10] it was 2.71 µM (inactive); in [11], 4 µM (inactive); in [12], 2.2 µM (inactive). Moreover, the GI50 is 2.32 µM (inactive) in assay [13]; 3.37 µM (inactive) in assay [14]; 2.97 µM (inactive) in assay [15]; 2.33 µM (inactive) in [16]; 2.19 µM (inactive) in assay [17]; 3.14 µM (inactive) in assay [18]. In addition, the GI50 in [19] is 3.05 µM (inactive); in assay [20], 2.91 µM (inactive).
As for `Nc1nc(N)c2c(n1)NC(c1ccccc1)CC(/C=C/c1ccc(Cl)cc1)=N2` (stereo not given), the GI50 was 3.94 µM (inactive) in assay [1]; 2.7 µM (inactive) in assay [2]; 12.2 µM (inactive) in assay [3]; 13.5 µM (inactive) in assay [4]; 14.6 µM (inactive) in assay [5]; 5.28 µM (inactive) in assay [6]. In addition, the GI50 in [7] is 1.89 µM (inactive); in assay [8], 3.48 µM (inactive); in assay [9] it was 17 µM (inactive); in assay [10], 5.62 µM (inactive); in assay [11], 7.87 µM (inactive); in assay [12], 6.59 µM (inactive). The GI50 was 15.5 µM (inactive) in assay [13]; 12.8 µM (inactive) in assay [14]; 11.6 µM (inactive) in assay [15]; 1.76 µM (inactive) in [16]; 4.84 µM (inactive) in assay [17]; 5.55 µM (inactive) in assay [18]. In addition, the GI50 in assay [19] was 10.8 µM (inactive); in assay [20] it was 2.72 µM (inactive).
On to `O=C1C=C(Nc2ccccc2C(=O)CC(=O)C(=O)Nc2cccc(C(F)(F)F)c2)c2ccccc2C1=O`, for which the GI50 in assay [1] was 31.4 µM (inactive); in assay [2], 66.8 µM (inactive); in assay [3], 46.5 µM (inactive); in [4] it was 24.1 µM (inactive); in [5], 16.8 µM (inactive); in assay [6] it was 17.3 µM (inactive). Also, the GI50 in assay [7] is 4.83 µM (inactive); in assay [8] it was 15.2 µM (inactive); in assay [9], > 77.1 µM (inactive); in assay [10], 6.35 µM (inactive); in [11], 64 µM (inactive); in assay [12], 17.9 µM (inactive). In addition, the GI50 is 22.5 µM (inactive) in [13]; 54.3 µM (inactive) in assay [14]; 15.8 µM (inactive) in assay [15]; 23.1 µM (inactive) in assay [16]; 4.37 µM (inactive) in [17]; 12.6 µM (inactive) in assay [18]. Moreover, the GI50 in assay [19] is 28.3 µM (inactive); in [20], 28.4 µM (inactive).
`COc1ccc2c(CCNS(=O)(=O)c3ccccc3)c(C(C)=O)[nH]c2c1`: the GI50 in assay [1] is > 100 µM (inactive); in [2] it was > 73.6 µM (inactive); in [3], 54.3 µM (inactive); in assay [4], 63.8 µM (inactive); in assay [5], > 100 µM (inactive); in assay [6], > 69.3 µM (inactive). The GI50 is 48.8 µM (inactive) in [7]; 51.4 µM (inactive) in [8]; > 88.9 µM (inactive) in assay [9]; > 100 µM (inactive) in [10]; 1 µM (active) in assay [11]; > 71.9 µM (inactive) in [12]. For the same molecule, the GI50 in [13] was 82.4 µM (inactive); in assay [14] it was 66.7 µM (inactive); in assay [15] it was > 58.5 µM (inactive); in [16], 20.5 µM (inactive); in assay [17] it was > 65.2 µM (inactive); in assay [18] it was > 71.3 µM (inactive). The GI50 in [19] is 3.15 µM (inactive); in [20], 34.4 µM (inactive).
`NCc1nnn(Cc2ccccc2)c1N`: the GI50 in assay [1], in [2], in assay [3], in assay [4], in assay [5] and in [6] was > 100 µM (inactive) each time. Further, the GI50 in assay [7], in assay [8], in assay [9], in assay [10], in [11] and in [12] was > 100 µM (inactive) each time. Further, the GI50 in [13], in [14], in assay [15], in assay [16], in [17] and in assay [18] was > 100 µM (inactive) each time. For the same molecule, the GI50 in [19] and in assay [20] was > 100 µM (inactive) in each case.
As to `COc1cc2cc(C(=O)N3CC(CCl)c4c3cc(NC(=O)C(C)(C)c3ccccc3[N+](=O)[O-])c3ccccc43)[nH]c2c(OC)c1OC` (stereo not given), the GI50 is 2.38 µM (inactive) in assay [1]; 5.43 µM (inactive) in assay [2]; 0.675 µM (active) in assay [3]; 7.16 µM (inactive) in [4]; 6.93 µM (inactive) in [5]; 0.951 µM (active) in [6]. Besides, the GI50 was 1.71 µM (inactive) in assay [7]; 0.142 µM (active) in assay [8]; 2.77 µM (inactive) in [9]; 82 µM (inactive) in assay [10]; 0.0687 µM (active) in [11]; 1.16 µM (inactive) in [12]. Besides, the GI50 in [13] is 4.78 µM (inactive); in assay [14] it was 4.36 µM (inactive); in assay [15] it was 3.32 µM (inactive); in assay [16], 1.99 µM (inactive); in assay [17], 0.13 µM (active); in [18] it was 5.12 µM (inactive). Further, the GI50 in assay [19] was 0.385 µM (active); in [20], 1.35 µM (inactive).
In the case of `COc1cc(C2C3=C(COC3=O)OC(C)(C)Oc3cc4c(cc32)OCO4)cc(OC)c1OC` (stereo not given), the GI50 was 3.58 µM (inactive) in [1]; 0.236 µM (active) in assay [2]; 0.344 µM (active) in [3]; 0.296 µM (active) in assay [4]; 0.673 µM (active) in [5]; 0.342 µM (active) in assay [6]. In addition, the GI50 was 0.453 µM (active) in assay [7]; 0.415 µM (active) in [8]; 3.72 µM (inactive) in assay [9]; 0.447 µM (active) in assay [10]; 2.27 µM (inactive) in [11]; 0.344 µM (active) in [12]. Further, the GI50 in assay [13] is 0.212 µM (active); in assay [14], 0.245 µM (active); in [15], 0.35 µM (active); in [16], 0.278 µM (active); in assay [17], 0.395 µM (active); in assay [18], 0.212 µM (active). Also, the values for the GI50 in assay [19] and in [20] were 0.682 µM (active) and 0.521 µM (active), respectively.
`COC(=O)c1ccccc1C1CN=NC12Cc1c(C)cc(C)cc1C2=O` (stereo not given): the GI50 in [1], in [2], in [3], in assay [4], in assay [5] and in assay [6] was > 100 µM (inactive) throughout. Further, the GI50 in [7], in assay [8], in assay [9], in assay [10], in [11] and in [12] was > 100 µM (inactive) throughout. The GI50 in assay [13] was > 100 µM (inactive); in assay [14], > 100 µM (inactive); in [15], > 100 µM (inactive); in [16], 8.34 µM (inactive); in assay [17], > 100 µM (inactive); in assay [18] it was > 100 µM (inactive). Also, the GI50 in assay [19] and in assay [20] was > 100 µM (inactive) throughout.
As to `CC[C@H]1C=CCC[C@@]2(C[C@@H]3CC[C@@H]4[C@H](C(=O)OCCCCCCCCCCCCCCCC(=O)O)[C@]5(CCC[C@@H](C)O5)NC(=[N+]34)N2)O1` [CRAMBESCIDIN 657], the GI50 was 0.153 µM (active) in [1]; 0.139 µM (active) in [2]; 0.164 µM (active) in assay [3]; 0.743 µM (active) in [4]; 0.127 µM (active) in assay [5]; 0.23 µM (active) in assay [6]. Moreover, the GI50 in [7] is 0.109 µM (active); in assay [8], 0.214 µM (active); in assay [9] it was 0.221 µM (active); in assay [10] it was 0.301 µM (active); in assay [11] it was 0.182 µM (active); in assay [12] it was 0.1 µM (active). Besides, the GI50 in [13] was 0.272 µM (active); in [14] it was 0.365 µM (active); in assay [15], 0.0927 µM (active); in assay [16] it was 0.131 µM (active); in [17] it was 0.005 µM (active); in assay [18], 0.189 µM (active). The GI50 in assay [19] was 0.175 µM (active); in assay [20] it was 0.193 µM (active).

For the origin of these results see ChEMBL document CHEMBL1201862, “PubChem BioAssay data set” (2004).
